Publication PMC5353688, “Both Drosophila matrix metalloproteinases have released and membrane-tethered forms but have different substrates” (Scientific Reports, 2017)

Key:
DmMmp2 = biological target: T1, DmMmp2 (Drosophila melanogaster, UniProt Q8MPP3); test: gelatin zymography of FLAG immunoprecipitate; format: biochemical; conditions: GM6001 25 uM in sample before electrophoresis, 10 uM in renaturing and developing buffers; gelatin substrate; complete inhibition, no constant
T1 construct: gene Mmp2; full-length cDNA, 3xFLAG inserted after S710 (before GPI-anchor signal), expressed in S2 cells, immunoprecipitated from conditioned media (released form); ~110 kDa in lysate
T1 sequence (Q8MPP3 137-738): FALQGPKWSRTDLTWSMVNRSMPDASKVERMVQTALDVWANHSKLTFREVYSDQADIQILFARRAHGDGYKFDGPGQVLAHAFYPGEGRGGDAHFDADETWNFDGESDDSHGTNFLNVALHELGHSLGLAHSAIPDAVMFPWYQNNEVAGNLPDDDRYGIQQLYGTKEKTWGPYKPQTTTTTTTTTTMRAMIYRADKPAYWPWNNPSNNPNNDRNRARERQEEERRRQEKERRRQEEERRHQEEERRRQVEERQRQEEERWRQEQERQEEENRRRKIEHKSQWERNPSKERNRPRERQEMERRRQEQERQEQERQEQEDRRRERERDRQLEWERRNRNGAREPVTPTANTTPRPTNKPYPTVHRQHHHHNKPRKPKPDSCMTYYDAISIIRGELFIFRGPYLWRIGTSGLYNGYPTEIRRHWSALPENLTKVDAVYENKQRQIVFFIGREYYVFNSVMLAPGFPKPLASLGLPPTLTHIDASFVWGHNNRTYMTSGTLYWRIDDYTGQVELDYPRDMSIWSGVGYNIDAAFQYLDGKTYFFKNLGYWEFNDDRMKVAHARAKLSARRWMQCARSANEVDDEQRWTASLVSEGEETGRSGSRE

DmMmp1 (Mmp1-PF) = biological target: T2, DmMmp1 (Mmp1-PF) (Drosophila melanogaster, UniProt Q8MLN6); format: biochemical; conditions: GM6001 25 uM in sample before electrophoresis, 10 uM in renaturing and developing buffers; casein substrate; complete inhibition, no constant
T2 construct: full-length cDNA (541 residues), C-terminal FLAG kept, expressed in S2 cells, immunoprecipitated from conditioned media; secreted form has lost pro-domain; ~65 kDa in lysate
T2 sequence (Q8MLN6 109-541): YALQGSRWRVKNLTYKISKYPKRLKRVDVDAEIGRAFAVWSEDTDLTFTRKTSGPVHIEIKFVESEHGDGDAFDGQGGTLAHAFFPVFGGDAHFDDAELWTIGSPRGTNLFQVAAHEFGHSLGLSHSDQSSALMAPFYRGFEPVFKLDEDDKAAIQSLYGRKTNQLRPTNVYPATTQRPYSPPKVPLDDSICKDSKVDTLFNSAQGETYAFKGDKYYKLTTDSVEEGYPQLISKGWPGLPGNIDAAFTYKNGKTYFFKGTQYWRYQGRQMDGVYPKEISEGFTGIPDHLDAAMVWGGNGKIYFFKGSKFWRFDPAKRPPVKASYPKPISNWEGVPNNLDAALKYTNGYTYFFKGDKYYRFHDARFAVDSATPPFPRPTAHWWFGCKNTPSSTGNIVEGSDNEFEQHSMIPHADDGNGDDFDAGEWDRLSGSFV

Structure (SMILES): CNC(=O)[C@H](Cc1c[nH]c2ccccc12)NC(=O)[C@@H](CC(=O)NO)CC(C)C [GM6001]
- gelatin zymography of FLAG immunoprecipitate (DmMmp2): GM6001 completely inhibited Mmp1 and Mmp2 catalytic activity on zymograms
- casein zymography of FLAG immunoprecipitate (DmMmp1 (Mmp1-PF)): GM6001 completely inhibited Mmp1 and Mmp2 catalytic activity on zymograms
